From paper PMC10167756 (Journal of medicinal chemistry, 2023)
Where a name gives a salt, the structure may show the parent alone.

Biological target: T1, Spns2 (Spinster homolog 2) (Mus musculus, UniProt Q91VM4)
T1 sequence (Q91VM4 1-549): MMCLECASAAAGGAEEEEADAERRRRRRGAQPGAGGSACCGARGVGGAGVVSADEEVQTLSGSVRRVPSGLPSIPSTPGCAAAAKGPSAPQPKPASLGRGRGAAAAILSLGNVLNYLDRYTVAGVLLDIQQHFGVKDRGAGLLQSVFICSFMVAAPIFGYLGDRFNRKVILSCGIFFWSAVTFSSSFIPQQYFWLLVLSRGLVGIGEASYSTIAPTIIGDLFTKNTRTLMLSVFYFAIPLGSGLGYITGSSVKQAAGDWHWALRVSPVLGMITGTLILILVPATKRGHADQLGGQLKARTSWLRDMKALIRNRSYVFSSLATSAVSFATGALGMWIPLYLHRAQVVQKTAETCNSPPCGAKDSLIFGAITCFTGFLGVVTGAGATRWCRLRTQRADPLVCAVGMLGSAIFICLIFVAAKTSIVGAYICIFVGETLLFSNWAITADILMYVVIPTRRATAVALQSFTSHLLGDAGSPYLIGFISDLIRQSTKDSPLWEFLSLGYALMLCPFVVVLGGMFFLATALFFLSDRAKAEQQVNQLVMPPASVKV
Test: S1P release assay in mouse Spns2-transfected HeLa cells, % inhibition at […]
Assay type: cell-based

CCCCCCCCCc1ccc2oc(NC[C@H]3CCNC3)nc2c1 [35p, (S)-5-nonyl-N-(pyrrolidin-3-ylmethyl)benzo[d]oxazol-2-amine hydrochloride]
inhibition at 0.3 µM: 50 ± 4%
